Test system: Sphaerotheca fuliginea
Experiment: Control test to powdery mildew of cucumber (foliar and soil treatment)
Format: in vivo
Conditions: for Foliar Treatment, Curative Effect / Foliar Treatment, Protective Effect / Soil Treatment, Protective Effect: index 0-10; for Protective Index, Foliar Treatment / Protective Index, Soil Treatment: first Table 4, 125 ppm, 14 days
Protocol: (1) Seeds of cucumber (Cultivar: Matsukaze) were sown in a pot of 9 cm in diameter and the pots were kept in a green house until the plant was grown for 2-3 leaf stage. The first leaf was sprayed with, (i) 3 ml each of solutions containing the test compound at the prescribed concetrations and dried by the air (foliar treatment). Inoculation of spore suspension of Sphaerotheca fuliginea by spraying was practised 2 days before the treatment (curative effect) or 1 day after the treatment (protective effect). Alternatively, (ii) 5 ml of the solution was applied at the root of the seedlings (soil treatment). The pots were kept in a greenhouse for 2 days and inoculation was practised in the same manner noted above. (iii) After sprayed with 3 ml of a solution of the test compound at a concentration of 125 ppm and dried by the air, the treated pots were set in a greenhouse. Untreated pots were placed next to the treated pots. Those treated and untreated plants were inoculated with spore suspension. Protective effect of the test compounds by vapor was thus checked. The effect was examined 14 days after the inoculation of the spores.
0: Disease sign is observed on the whole leaf.
3: Disease sign is observed on the leaf in about 50%.
5: Disease sign is observed on the leaf in about 30%.
7: Disease sign is observed on the leaf in about 20%.
9: a little disease sign is observed.
(1) Test methods and evaluation are the same as those in Tests 2, 4 and 6.

**Q.** What does the source list for `O[C@@]1(c2ccc(Cl)cc2)CCCC[C@H]1n1ccnc1` (relative stereo) [Compound 26]?
**A.** Foliar Treatment, Curative Effect (second Table 4, 0.5 ppm): 0; Foliar Treatment, Protective Effect (second Table 4, 0.5 ppm): 0; Foliar Treatment, Curative Effect (second Table 4, 2.0 ppm): 7 (Disease sign is observed on the leaf in about 20%.); Foliar Treatment, Protective Effect (second Table 4, 2.0 ppm): 3 (Disease sign is observed on the leaf in about 50%.); Foliar Treatment, Curative Effect (second Table 4, 7.8 ppm): 9; Foliar Treatment, Protective Effect (second Table 4, 7.8 ppm): 9; Foliar Treatment, Curative Effect (second Table 4, 31.3 ppm): 10; Foliar Treatment, Protective Effect (second Table 4, 31.3 ppm): 10

**Q.** For `O[C@@]1(Cc2ccc(Cl)cc2)CCCCC[C@H]1n1cncn1` (relative stereo) [Compound 5, cis-1-(4-chlorobenzyl)-2-(1,2,4-triazol-1-yl)cycloheptanol], which “Protective Index, Foliar Treatment” value is on record?
**A.** Its value is 10.

**Q.** What about the “Protective Index, Soil Treatment” value of the same compound?
**A.** Its value is 3 (Disease sign is observed on the leaf in about 50%.).

**Q.** What does the source list for `O[C@@]1(c2ccc(Cl)cc2)CCCCC[C@H]1n1ccnc1` (relative stereo) [Compound 27]?
**A.** Foliar Treatment, Curative Effect (second Table 4, 0.5 ppm): 0; Foliar Treatment, Protective Effect (second Table 4, 0.5 ppm): 0; Foliar Treatment, Curative Effect (second Table 4, 2.0 ppm): 5 (Disease sign is observed on the leaf in about 30%.); Foliar Treatment, Protective Effect (second Table 4, 2.0 ppm): 3 (Disease sign is observed on the leaf in about 50%.); Foliar Treatment, Curative Effect (second Table 4, 7.8 ppm): 10; Foliar Treatment, Protective Effect (second Table 4, 7.8 ppm): 9; Foliar Treatment, Curative Effect (second Table 4, 31.3 ppm): 10; Foliar Treatment, Protective Effect (second Table 4, 31.3 ppm): 10

**Q.** What does the source list for `O[C@@]1(c2cccc(Cl)c2)CCCC[C@H]1n1cncn1` (relative stereo) [Compound 31]?
**A.** Foliar Treatment, Curative Effect (second Table 4, 0.5 ppm): 3 (Disease sign is observed on the leaf in about 50%.); Foliar Treatment, Protective Effect (second Table 4, 0.5 ppm): 0; Foliar Treatment, Curative Effect (second Table 4, 2.0 ppm): 9; Foliar Treatment, Protective Effect (second Table 4, 2.0 ppm): 0; Foliar Treatment, Curative Effect (second Table 4, 7.8 ppm): 10; Foliar Treatment, Protective Effect (second Table 4, 7.8 ppm): 9; Foliar Treatment, Curative Effect (second Table 4, 31.3 ppm): 10; Foliar Treatment, Protective Effect (second Table 4, 31.3 ppm): 10

**Q.** With `O[C@@]1(c2ccc(F)cc2)CCCCC[C@H]1n1ccnc1` (relative stereo) [Compound 23] as the compound, how does the “Foliar Treatment, Curative Effect” value (second Table 4, 0.5 ppm) read?
**A.** The value was 0.

**Q.** What about the “Foliar Treatment, Protective Effect” value (second Table 4, 0.5 ppm) of the same compound?
**A.** Its value is 0.

**Q.** What about the “Foliar Treatment, Curative Effect” value (second Table 4, 2.0 ppm) of the same compound?
**A.** The value was 3 (Disease sign is observed on the leaf in about 50%.).

**Q.** And the “Foliar Treatment, Protective Effect” value (second Table 4, 2.0 ppm)?
**A.** Its value is 5 (Disease sign is observed on the leaf in about 30%.).

**Q.** What about the “Foliar Treatment, Curative Effect” value (second Table 4, 7.8 ppm) of the same compound?
**A.** The value was 10.

**Q.** What about the “Foliar Treatment, Protective Effect” value (second Table 4, 7.8 ppm) of the same compound?
**A.** The value was 10.

**Q.** And the “Foliar Treatment, Curative Effect” value (second Table 4, 31.3 ppm)?
**A.** The value was 10.

**Q.** And the “Foliar Treatment, Protective Effect” value (second Table 4, 31.3 ppm)?
**A.** Its value is 10.

**Q.** `O[C@@]1(c2ccc(Cl)c(Cl)c2)CCCCC[C@H]1n1cncn1` (relative stereo) [Compound 34] was tested. Which “Foliar Treatment, Curative Effect” value (second Table 4, 0.5 ppm) did it give?
**A.** The value was 5 (Disease sign is observed on the leaf in about 30%.).

**Q.** And the “Foliar Treatment, Protective Effect” value (second Table 4, 0.5 ppm)?
**A.** Its value is 0.

**Q.** And the “Soil Treatment, Protective Effect” value (second Table 4, 0.5 ppm)?
**A.** The value was 0.

**Q.** And the “Foliar Treatment, Curative Effect” value (second Table 4, 2.0 ppm)?
**A.** The value was 10.

**Q.** What about the “Foliar Treatment, Protective Effect” value (second Table 4, 2.0 ppm) of the same compound?
**A.** The value was 0.

**Q.** What about the “Soil Treatment, Protective Effect” value (second Table 4, 2.0 ppm) of the same compound?
**A.** The value was 0.

**Q.** And the “Foliar Treatment, Curative Effect” value (second Table 4, 7.8 ppm)?
**A.** The value was 10.

**Q.** And the “Foliar Treatment, Protective Effect” value (second Table 4, 7.8 ppm)?
**A.** Its value is 9.

**Q.** And the “Soil Treatment, Protective Effect” value (second Table 4, 7.8 ppm)?
**A.** Its value is 0.

**Q.** And the “Foliar Treatment, Curative Effect” value (second Table 4, 31.3 ppm)?
**A.** The value was 10.

**Q.** What about the “Foliar Treatment, Protective Effect” value (second Table 4, 31.3 ppm) of the same compound?
**A.** Its value is 10.

**Q.** What about the “Soil Treatment, Protective Effect” value (second Table 4, 31.3 ppm) of the same compound?
**A.** Its value is 0.

**Q.** Which “Foliar Treatment, Curative Effect” value (second Table 4, 0.5 ppm) does the source give for `O[C@@]1(c2ccc(Cl)c(Cl)c2)CCCC[C@H]1n1cncn1` (relative stereo) [Compound 33] here?
**A.** The value was 3 (Disease sign is observed on the leaf in about 50%.).

**Q.** And the “Foliar Treatment, Protective Effect” value (second Table 4, 0.5 ppm)?
**A.** The value was 0.

**Q.** And the “Soil Treatment, Protective Effect” value (second Table 4, 0.5 ppm)?
**A.** Its value is 0.

**Q.** What about the “Foliar Treatment, Curative Effect” value (second Table 4, 2.0 ppm) of the same compound?
**A.** The value was 10.

**Q.** And the “Foliar Treatment, Protective Effect” value (second Table 4, 2.0 ppm)?
**A.** Its value is 5 (Disease sign is observed on the leaf in about 30%.).

**Q.** What about the “Soil Treatment, Protective Effect” value (second Table 4, 2.0 ppm) of the same compound?
**A.** Its value is 0.

**Q.** And the “Foliar Treatment, Curative Effect” value (second Table 4, 7.8 ppm)?
**A.** Its value is 10.

**Q.** And the “Foliar Treatment, Protective Effect” value (second Table 4, 7.8 ppm)?
**A.** Its value is 10.

**Q.** What about the “Soil Treatment, Protective Effect” value (second Table 4, 7.8 ppm) of the same compound?
**A.** The value was 0.

**Q.** What about the “Foliar Treatment, Curative Effect” value (second Table 4, 31.3 ppm) of the same compound?
**A.** Its value is 10.

**Q.** What about the “Foliar Treatment, Protective Effect” value (second Table 4, 31.3 ppm) of the same compound?
**A.** The value was 10.

**Q.** What about the “Soil Treatment, Protective Effect” value (second Table 4, 31.3 ppm) of the same compound?
**A.** The value was 0.

**Q.** Which results are given for `O[C@@]1(c2cccs2)CCCC[C@H]1n1ccnc1` (relative stereo) [Compound 6, cis-1-(2-thienyl)-2-imidazolylcyclohexanol]?
**A.** Protective Index, Foliar Treatment: 10; Protective Index, Soil Treatment: 0

From patent publication US5091539A, “Azolyl cycloalkanol derivatives and agricultural fungicides” (Shionogi & Co., Ltd., priority 1984, dated 1992)
